According to patent publication US20050153989A1, “Pyrrolopyrimidine derivatives and analogs and their use in the treatment and prevention of diseases” (Ambit Biosciences Corporation, priority 2004, published 2005):

Each compound was assayed against T1, EGFR (Homo sapiens, UniProt P00533) (assay: EGFR autophosphorylation (tyrosine 1173) inhibition assay in lung cancer cell line A459). Details: EGF-induced phosphorylation of tyrosine 1173.
Assay type: cell-based
Design: 3.6×10^5 A549 cells/well in a 24-well culture plate; endogenous in cells
Description: (§1) Cells were stimulated by the addition of 5 ng/ml of EGF for five minutes. Cells were then washed with cold phosphate buffered saline (PBS), and incubated for 30 minutes at 4° C. in lysis buffer. […] Total EGFR levels were also measured in the same manner to control for protein level differences.

T1 sequence (P00533 25-1210): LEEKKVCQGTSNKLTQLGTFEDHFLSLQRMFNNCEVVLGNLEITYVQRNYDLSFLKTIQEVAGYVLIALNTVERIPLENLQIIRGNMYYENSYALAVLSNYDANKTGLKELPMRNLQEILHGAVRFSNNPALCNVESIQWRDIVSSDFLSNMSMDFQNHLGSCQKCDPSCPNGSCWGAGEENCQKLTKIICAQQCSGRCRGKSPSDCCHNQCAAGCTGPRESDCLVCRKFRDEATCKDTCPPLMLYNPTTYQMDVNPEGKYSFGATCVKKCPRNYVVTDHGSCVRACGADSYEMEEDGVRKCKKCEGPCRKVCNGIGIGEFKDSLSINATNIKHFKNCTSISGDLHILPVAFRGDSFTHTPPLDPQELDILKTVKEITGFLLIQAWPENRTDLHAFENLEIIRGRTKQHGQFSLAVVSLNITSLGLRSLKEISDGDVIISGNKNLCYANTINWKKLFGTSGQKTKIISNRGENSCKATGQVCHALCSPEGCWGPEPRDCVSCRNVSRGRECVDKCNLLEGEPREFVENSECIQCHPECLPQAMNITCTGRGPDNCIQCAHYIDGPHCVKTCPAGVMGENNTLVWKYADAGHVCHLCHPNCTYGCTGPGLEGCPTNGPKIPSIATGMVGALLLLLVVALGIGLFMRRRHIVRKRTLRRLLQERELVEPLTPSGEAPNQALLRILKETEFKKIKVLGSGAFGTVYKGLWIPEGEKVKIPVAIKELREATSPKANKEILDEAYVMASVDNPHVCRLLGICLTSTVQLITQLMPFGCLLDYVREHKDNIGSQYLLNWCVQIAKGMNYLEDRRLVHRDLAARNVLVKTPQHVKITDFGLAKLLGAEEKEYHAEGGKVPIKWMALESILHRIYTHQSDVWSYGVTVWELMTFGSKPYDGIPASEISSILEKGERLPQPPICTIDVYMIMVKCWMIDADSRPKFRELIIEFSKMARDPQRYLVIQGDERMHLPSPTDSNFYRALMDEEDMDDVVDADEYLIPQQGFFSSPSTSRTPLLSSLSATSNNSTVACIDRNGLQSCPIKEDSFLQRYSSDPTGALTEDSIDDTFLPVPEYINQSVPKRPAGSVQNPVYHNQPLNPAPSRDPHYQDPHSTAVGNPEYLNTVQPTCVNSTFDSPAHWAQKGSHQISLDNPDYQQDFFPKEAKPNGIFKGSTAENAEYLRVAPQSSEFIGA

| SMILES | IC50 [nM] |
| --- | --- |
| C[C@H](Nc1ncnc2c1[nH]c1ccccc12)c1ccccc1 [Compound C2] | 1000 to 10000 |
| COc1ccc(-c2cc3c(N[C@@H](C)c4ccccc4)ncnc3n2C(C)C)cc1 [Compound D10] | < 100 |

The compounds below were run against T1, EGFR (assay: Binding constant (Kd) measurement, T7 phage-displayed kinase competition binding, wildtype EGFR). Details: read-out: Kd for EGFR (DKIN) Binding.
Design: made in house
Excerpt: Methods for measuring binding affinities for interactions between small molecules and kinases including FLT3, c-KIT, ABL(T334I) [a.k.a. […] The components of the assays include human kinases expressed as fusions to T7 bacteriophage particles and immobilized ligands that bind to the ATP site of the kinases. […] If the test compound binds the kinase it competes with the immobilized ligand and prevents binding to the solid support. […] The results are read out by quantitating the amount of fusion protein bound to the solid support, which is accomplished by either traditional phage plaque assays or by quantitative PCR (qPCR) using the phage genome as a template.
The term “ND” represents non-determined values.
To measure the Kd values, the T7 phage displaying human EGFR were incubated with an […] affinity matrix in the presence of various concentrations of a soluble (non-immobilized) compounds provided herein, as described in detail herein.

| SMILES | Kd [nM] |
| --- | --- |
| C[C@H](Nc1ncnc2c1[nH]c1ccccc12)c1ccccc1 [Compound C2] | < 100 |
| Fc1ccc(Nc2ncnc3c2[nH]c2ccccc23)cc1Cl [Compound C14] | 100 to 1000 |
| COc1ccc(-c2cc3c(N[C@@H](C)c4ccccc4)ncnc3n2C)cc1 [Compound D9] | > 10000 |
| COc1ccc(-c2cc3c(N[C@@H](C)c4ccccc4)ncnc3n2C(C)C)cc1 [Compound D10] | < 100 |
| Clc1ccc(Nc2ncnc3[nH]cnc23)cc1Cl [Compound G3] | 1000 to 10000 |
| O=C(O)c1cccc(Nc2ncnc3[nH]cnc23)c1 [Compound G6] | > 10000 |
| Clc1cccc(Nc2ncnc3[nH]cnc23)c1 [Compound G12] | > 10000 |
| COc1cccc(CNc2ncnc3nc[nH]c23)c1 [Compound G15] | > 10000 |
| C[C@@H](Nc1ncnc2oc(-c3ccccc3)c(-c3ccccc3)c12)c1ccccc1 [Compound H1, (5,6-Diphenyl-furo[2,3-d]pyrimidin-4-yl)-(1-phenyl-ethyl)-amine] | < 100 |
| CC(Nc1ncnc2oc(-c3ccccc3)c(-c3ccccc3)c12)c1ccccc1 (centres unmarked) [Compound H3] | < 100 |
| COc1ccc(-c2nc3c(NCc4cccc(C)c4)ncnc3[nH]2)cc1 [Compound I4] | 100 to 1000 |
| COc1ccc(-c2cc3c(Nc4cccc(C(F)(F)F)c4)ncnc3[nH]2)cc1 [Compound I5] | < 100 |
| COC(=O)C(Nc1ncnc2[nH]c(-c3ccc(OC)cc3)cc12)c1ccccc1 (centres unmarked) [Compound I7] | 100 to 1000 |
| COc1ccc(-c2cc3c(NCCc4ccccc4)ncnc3[nH]2)cc1 [Compound I8] | 100 to 1000 |
| C[C@H](Nc1ncnc2[nH]c(-c3ccc(O)cc3)cc12)c1ccccc1 [Compound I9] | 1000 to 10000 |
| COc1cccc(-c2cc3c(NCc4cccc(Cl)c4)ncnc3[nH]2)c1 [Compound I11] | < 100 |
| COc1cccc(-c2cc3c(NCc4cccc(C)c4)ncnc3[nH]2)c1 [Compound I12] | 100 to 1000 |
| COc1cccc(-c2cc3c(NCc4ccccc4)ncnc3[nH]2)c1 [Compound I14] | < 100 |
| COc1cccc(-c2cc3c(NCc4ccc(Cl)cc4)ncnc3[nH]2)c1 [Compound I16] | < 100 |
| COc1ccc(C(C)Nc2ncnc3[nH]c(-c4cccc(OC)c4)cc23)cc1 (centres unmarked) [Compound I17] | 1000 to 10000 |

| SMILES | Kd [nM] |
| --- | --- |
| CC(Nc1ncnc2[nH]c(-c3ccc(O)cc3)cc12)c1ccccc1 (centres unmarked) [Compound I18] | < 100 |
| COc1cccc(CNc2ncnc3[nH]c(-c4ccc(O)cc4)cc23)c1 [Compound I19] | 100 to 1000 |
| Cc1cccc(CNc2ncnc3[nH]c(-c4ccc(O)cc4)cc23)c1 [Compound I20] | < 100 |
| Oc1ccc(-c2cc3c(NCc4ccccc4)ncnc3[nH]2)cc1 [Compound I21] | < 100 |
| Oc1ccc(-c2cc3c(NCCc4ccccc4)ncnc3[nH]2)cc1 [Compound I22] | < 100 |
| COc1ccc(C(C)Nc2ncnc3[nH]c(-c4ccc(O)cc4)cc23)cc1 (centres unmarked) [Compound I23] | 1000 to 10000 |
| C[C@H](Nc1ncnc2[nH]c(-c3ccc(Br)cc3)cc12)c1ccccc1 [Compound I24] | < 100 |
| COc1ccc(Cn2c(-c3ccc(OC)cc3)cc3c(Nc4cc(C)cc(C)c4)ncnc32)cc1 [Compound K6] | 1000 to 10000 |
| COc1ccc(Cn2c(-c3ccc(OC)cc3)cc3c(Nc4cccc(O)c4)ncnc32)cc1 [Compound K7] | 1000 to 10000 |
| COc1ccc(Cn2c(-c3ccc(OC)cc3)cc3c(Nc4cccc(F)c4)ncnc32)cc1 [Compound K8] | 1000 to 10000 |
| COc1ccc(Cn2c(-c3ccc(OC)cc3)cc3c(NCc4cccc(Cl)c4)ncnc32)cc1 [Compound M20] | 1000 to 10000 |
| COc1ccc(-c2cc3c(N[C@H](C)c4ccccc4)ncnc3[nH]2)cc1 [Compound M21] | < 100 |
| COc1ccc(-c2cc3c(N[C@H](C)c4ccccc4)nc(N[C@@H](C)c4ccccc4)nc3[nH]2)cc1 [Compound M22] | < 100 |
| COc1ccc(-c2cc3c(NC(C)c4ccccc4)ncnc3[nH]2)cc1 (centres unmarked) [Compound M24] | 100 to 1000 |
| Cn1c(-c2ccc(O)cc2)cc2c(Nc3cccc(Br)c3)ncnc21 [Compound Q7] | 1000 to 10000 |
| COc1ccc(-c2cc3c(Nc4cc(Cl)cc(Cl)c4)ncnc3[nH]2)cc1 [Compound S2] | 100 to 1000 |
| COc1ccc(-c2cc3c(Nc4cccc(C(=O)O)c4)ncnc3[nH]2)cc1 [Compound S3] | < 100 |
| COC(=O)c1cccc(Nc2ncnc3[nH]c(-c4ccc(OC)cc4)cc23)c1 [Compound S4] | < 100 |
| COc1ccc(-c2cc3c(Nc4ccc(Cl)c(C(F)(F)F)c4)ncnc3[nH]2)cc1 [Compound S8] | < 100 |
| COc1ccc(-c2cc3c(Nc4cccc(C)c4)ncnc3[nH]2)cc1 [Compound S10] | < 100 |

| SMILES | Kd [nM] |
| --- | --- |
| COc1cccc(-c2cc3c(Nc4cc(C)cc(C)c4)ncnc3[nH]2)c1 [Compound S13] | < 100 |
| COC(=O)c1cccc(Nc2ncnc3[nH]c(-c4cccc(OC)c4)cc23)c1 [Compound S15] | > 10000 |
| COc1cccc(-c2cc3c(Nc4cccc(O)c4)ncnc3[nH]2)c1 [Compound S16] | < 100 |
| COc1cccc(-c2cc3c(Nc4ccc(Cl)c(Cl)c4)ncnc3[nH]2)c1 [Compound S19] | < 100 |
| COc1cccc(Nc2ncnc3[nH]c(-c4cccc(OC)c4)cc23)c1 [Compound S21] | < 100 |
| COc1cccc(-c2cc3c(Nc4cccc(F)c4)ncnc3[nH]2)c1 [Compound S22] | < 100 |
| COc1cccc(-c2cc3c(Nc4ccc(Cl)cc4)ncnc3[nH]2)c1 [Compound S23] | < 100 |
| COc1cccc(-c2cc3c(Nc4ccc(F)cc4)ncnc3[nH]2)c1 [Compound S24] | < 100 |
| COc1cccc(-c2cc3c(Nc4ccccc4)ncnc3[nH]2)c1 [Compound S27] | < 100 |
| COc1cccc(-c2cc3c(Nc4ccc(C)cc4)ncnc3[nH]2)c1 [Compound S28] | < 100 |
| Cc1cc(C)cc(Nc2ncnc3[nH]c(-c4ccc(O)cc4)cc23)c1 [Compound S30] | < 100 |
| O=C(O)c1cccc(Nc2ncnc3[nH]c(-c4ccc(O)cc4)cc23)c1 [Compound S31] | 1000 to 10000 |
| COC(=O)c1cccc(Nc2ncnc3[nH]c(-c4ccc(O)cc4)cc23)c1 [Compound S32] | 100 to 1000 |
| Oc1ccc(-c2cc3c(Nc4cccc(O)c4)ncnc3[nH]2)cc1 [Compound S33] | < 100 |
| Oc1ccc(-c2cc3c(Nc4cccc(F)c4)ncnc3[nH]2)cc1 [Compound S35] | < 100 |
| COc1cccc(Nc2ncnc3[nH]c(-c4ccc(O)cc4)cc23)c1 [Compound S36] | < 100 |
| Oc1ccc(-c2cc3c(Nc4ccc(F)cc4)ncnc3[nH]2)cc1 [Compound S37] | < 100 |
| Clc1cc(Cl)cc(Nc2ncnc3[nH]c(-c4ccc(Br)cc4)cc23)c1 [Compound S38] | 1000 to 10000 |
| Cc1cc(C)cc(Nc2ncnc3[nH]c(-c4ccc(Br)cc4)cc23)c1 [Compound S39] | 100 to 1000 |
| COc1cccc(Nc2ncnc3[nH]c(-c4ccc(Br)cc4)cc23)c1 [Compound S42] | 100 to 1000 |

What follows are compounds tested against T1, EGFR (assay: EGFR autophosphorylation (tyrosine 1173) inhibition assay in A431 cells). Details: Epidermoid Carcinoma Cell Line A431; EGF-induced phosphorylation of tyrosine 1173.
Assay type: cell-based
Design: 4×10^4 A431 cells/well in a 96-well culture plate; endogenous in cells; host or cells: A431
Description: as §1

| SMILES | IC50 [nM] |
| --- | --- |
| C[C@H](Nc1ncnc2c1[nH]c1ccccc12)c1ccccc1 [Compound C2] | 100 to 1000 |
| COc1ccc(-c2cc3c(N[C@@H](C)c4ccccc4)ncnc3n2C(C)C)cc1 [Compound D10] | 100 to 1000 |
| C[C@@H](Nc1ncnc2oc(-c3ccccc3)c(-c3ccccc3)c12)c1ccccc1 [Compound H1, (5,6-Diphenyl-furo[2,3-d]pyrimidin-4-yl)-(1-phenyl-ethyl)-amine] | 100 to 1000 |
| CC(Nc1ncnc2oc(-c3ccccc3)c(-c3ccccc3)c12)c1ccccc1 (centres unmarked) [Compound H3] | 100 to 1000 |
| COc1ccc(-c2cc3c(Nc4cccc(C)c4)ncnc3[nH]2)cc1 [Compound S10] | < 100 |
| Cc1cc(C)cc(Nc2ncnc3[nH]c(-c4ccc(Br)cc4)cc23)c1 [Compound S39] | 100 to 1000 |
